{
  "source": "patent US20030190334A1",
  "about": "“Low dose liquid entecavir formulations and use” (priority 2002, published 2003)",
  "assay": "Reaction of entecavir with sweetener or flavoring agent that contains aldehyde and/or ketone groups",
  "assay_type": "physicochemical",
  "description": "While entecavir is potent, it is also extremely bitter. To combat the bitterness, a sweetener is generally used. However, entecavir has shown a tendency to react with commonly used sweeteners, such as sucrose, creating stability concerns. Entecavir has a primary amine group in its structure that has the propensity to react with any sweetener or flavoring agent that contains aldehyde and/or ketone groups.",
  "data": [
    {"smiles": "C=C1[C@H](CO)[C@@H](O)C[C@@H]1n1cnc2c(=O)[nH]c(N)nc21", "note": "[Entecavir, [1S-(1α,3α,4β)]-2-amino-1,9-dihydro-9-[4-hydroxy-3-(hydroxymethyl)-2-methylenecyclopentyl]-6H-purin-6-one]", "values": [
      {"measurement": "reaction with sweetener or flavoring agent that contains aldehyde and/or ketone groups", "setting": "pH 5 to 7", "value": "minimized"},
      {"measurement": "reaction with sweetener or flavoring agent that contains aldehyde and/or ketone groups", "setting": "weakly acidic pH (pH 3 to 4)", "value": "more pronounced"}
    ]}
  ]
}
